Measurements from PMC7932029 (Journal of natural products, 2020).
Counter-ions that a name gives are not always drawn.

Experiments:
[1] = molecular target: FLAG-mouse δOR (Mus musculus, UniProt P32300); assay: GloSensor cAMP inhibition assay, δOR; format: cell-based; conditions: efficacy normalized to positive control Leu-Enk
[2] = molecular target: T1, κOR (Homo sapiens, UniProt P41145); format: cell-based
[3] = molecular target: HA-mouse μOR (Mus musculus, UniProt P42866); assay: GloSensor cAMP inhibition assay, μOR; format: cell-based; conditions: efficacy normalized to positive control DAMGO
[4] = tested on: C57BL/6 mice; assay: Hot plate thermal nociception assay; format: in vivo, mouse
[5] = molecular target: FLAG-mouse κOR (Mus musculus, UniProt P33534); format: cell-based
[6] = tested on: C57BL/6 mice; assay: Tail flick thermal nociception assay; format: in vivo, mouse
[7] = molecular target: T2, μOR (Homo sapiens, UniProt P35372); assay: PDSP primary radioligand displacement screen, μOR; format: binding; conditions: 10 μM
[8] = molecular target: human δOR (Homo sapiens, UniProt P41143); assay: PathHunter β-arrestin 2 recruitment assay, δOR; conditions: highest concentration tested, in words
[9] = molecular target: T1, κOR; format: binding
[10] = molecular target: T2, μOR; assay: PathHunter β-arrestin 2 recruitment assay, μOR
[11] = Partition coefficients of akuamma alkaloids in CCS solvent systems; format: physicochemical; conditions: for Kacid: 10 mM HCl; for Kbase: 10 mM TEA
[12] = tested on: Wistar rats; conditions: p.o., cited from earlier work
[13] = molecular target: T1, κOR; assay: PDSP secondary binding assay, κOR
[14] = 5 mg/kg p.o., any of the timepoints tested

T1 sequence (P41145 whole entry): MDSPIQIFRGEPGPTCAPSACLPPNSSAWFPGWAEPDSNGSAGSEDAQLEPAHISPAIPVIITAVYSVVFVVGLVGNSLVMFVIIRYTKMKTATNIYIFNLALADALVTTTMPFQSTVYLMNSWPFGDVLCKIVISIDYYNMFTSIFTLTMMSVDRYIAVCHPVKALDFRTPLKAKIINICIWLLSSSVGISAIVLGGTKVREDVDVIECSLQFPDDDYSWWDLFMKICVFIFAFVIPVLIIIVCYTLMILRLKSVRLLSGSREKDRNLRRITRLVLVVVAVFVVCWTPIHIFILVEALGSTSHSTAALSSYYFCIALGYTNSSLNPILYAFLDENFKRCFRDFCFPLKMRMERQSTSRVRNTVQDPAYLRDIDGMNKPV
T2 sequence (P35372 whole entry): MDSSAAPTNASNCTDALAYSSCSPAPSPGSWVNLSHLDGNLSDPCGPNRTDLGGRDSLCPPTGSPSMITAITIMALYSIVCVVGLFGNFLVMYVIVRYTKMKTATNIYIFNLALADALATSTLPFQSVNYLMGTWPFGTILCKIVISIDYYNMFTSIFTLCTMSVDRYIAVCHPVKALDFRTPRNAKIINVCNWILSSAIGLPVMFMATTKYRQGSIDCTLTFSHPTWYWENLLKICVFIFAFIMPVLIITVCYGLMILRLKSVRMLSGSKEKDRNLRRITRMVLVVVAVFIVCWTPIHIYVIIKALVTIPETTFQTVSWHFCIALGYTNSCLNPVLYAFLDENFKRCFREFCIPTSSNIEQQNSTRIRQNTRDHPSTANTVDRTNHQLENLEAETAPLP
Sequence of HA-mouse μOR (P42866 whole entry): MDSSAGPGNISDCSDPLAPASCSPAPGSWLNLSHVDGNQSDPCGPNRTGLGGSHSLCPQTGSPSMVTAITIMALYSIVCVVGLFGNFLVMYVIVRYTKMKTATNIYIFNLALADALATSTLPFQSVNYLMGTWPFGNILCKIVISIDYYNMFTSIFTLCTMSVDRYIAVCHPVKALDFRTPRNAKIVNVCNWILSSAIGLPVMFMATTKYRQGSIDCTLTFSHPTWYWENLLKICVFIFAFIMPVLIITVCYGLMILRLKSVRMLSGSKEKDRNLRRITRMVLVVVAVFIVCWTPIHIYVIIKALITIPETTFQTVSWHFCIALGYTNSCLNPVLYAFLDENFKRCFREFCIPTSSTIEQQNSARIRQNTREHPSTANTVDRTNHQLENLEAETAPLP
Sequence of FLAG-mouse κOR (P33534 whole entry): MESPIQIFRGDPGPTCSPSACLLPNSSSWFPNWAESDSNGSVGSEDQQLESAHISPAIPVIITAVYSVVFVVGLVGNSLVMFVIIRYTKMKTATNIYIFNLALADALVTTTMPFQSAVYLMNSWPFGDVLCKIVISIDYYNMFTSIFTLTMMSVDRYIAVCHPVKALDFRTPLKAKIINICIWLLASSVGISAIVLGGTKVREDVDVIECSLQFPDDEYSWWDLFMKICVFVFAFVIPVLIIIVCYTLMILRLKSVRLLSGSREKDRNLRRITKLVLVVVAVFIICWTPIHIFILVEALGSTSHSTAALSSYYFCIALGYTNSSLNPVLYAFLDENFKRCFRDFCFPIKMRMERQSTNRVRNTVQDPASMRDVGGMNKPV
Sequence of human δOR (P41143 whole entry): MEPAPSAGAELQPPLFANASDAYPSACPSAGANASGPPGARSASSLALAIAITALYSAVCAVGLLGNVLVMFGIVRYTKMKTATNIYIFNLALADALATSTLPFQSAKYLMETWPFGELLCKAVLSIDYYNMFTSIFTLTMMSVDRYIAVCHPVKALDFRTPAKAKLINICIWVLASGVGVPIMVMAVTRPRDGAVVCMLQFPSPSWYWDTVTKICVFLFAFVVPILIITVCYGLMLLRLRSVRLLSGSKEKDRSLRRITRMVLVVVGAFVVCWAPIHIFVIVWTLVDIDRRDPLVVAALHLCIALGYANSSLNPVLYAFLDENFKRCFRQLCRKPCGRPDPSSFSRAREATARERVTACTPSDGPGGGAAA
Sequence of FLAG-mouse δOR (P32300 whole entry): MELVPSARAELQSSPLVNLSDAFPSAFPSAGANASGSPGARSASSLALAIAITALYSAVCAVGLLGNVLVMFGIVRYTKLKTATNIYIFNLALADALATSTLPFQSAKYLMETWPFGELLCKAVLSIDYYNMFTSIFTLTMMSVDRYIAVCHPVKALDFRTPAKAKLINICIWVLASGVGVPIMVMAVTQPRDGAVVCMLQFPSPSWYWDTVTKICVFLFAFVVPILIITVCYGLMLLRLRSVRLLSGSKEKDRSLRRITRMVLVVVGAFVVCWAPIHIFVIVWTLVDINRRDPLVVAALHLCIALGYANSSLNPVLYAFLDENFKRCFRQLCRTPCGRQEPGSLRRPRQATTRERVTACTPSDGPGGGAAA

Row | SMILES | cAMP α [3] | displacement of [3H]-DAMGO [7] | Binding pKi [9] | Kacid ([11]; 1:1:1:1 Hex/EtOAc/MeOH/H2O) | Kbase ([11]; 1:1:1:1 Hex/EtOAc/MeOH/H2O) | Kacid ([11]; 1:1 EtOAc/H2O) | Kbase ([11]; 1:1 EtOAc/H2O) | Kbase ([11]; 2:2:3 MTBE/CH3CN/H2O) | Kacid ([11]; 3:1.5:4 MTBE/CH3CN/H2O) | Kbase ([11]; 3:1.5:4 MTBE/CH3CN/H2O) | Kacid ([11]; 3:7:3:7 Hex/EtOAc/MeOH/H2O) | Kbase ([11]; 3:7:3:7 Hex/EtOAc/MeOH/H2O) | Kacid ([11]; 2:2:3 MTBE/CH3CN/H2O) | also measured
1 | C/C=C1/CN2CC[C@@]34c5cc(O)ccc5N(C)[C@]35OC[C@@]4(C(=O)OC)[C@H]1C[C@H]25 [Compound 1, akuammine] | 62 ± 6 | displaced | – | – | – | – | – | – | – | – | – | – | – | cAMP α [1]: 50 ± 35; β-arrestin 2 α [2]: 35 ± 6; antinociception ([4]; 3 mg/kg s.c., 110 minutes): minimal yet statistically significant antinociception; antinociception ([4]; 30 mg/kg s.c., 60 minutes): minimal yet statistically significant antinociception; antinociception ([4]; 60 mg/kg s.c., 30 minutes): minimal yet statistically significant antinociception; antinociception ([4]; oral dosing, data not shown): no antinociception was measurable; cAMP inhibition [5]: did not inhibit cAMP production; antinociception ([6]; 3 mg/kg s.c., 110 minutes): minimal yet statistically significant antinociception; antinociception ([6]; 60 mg/kg s.c., 30 minutes): minimal yet statistically significant antinociception; antinociception ([6]; oral dosing, data not shown): no antinociception was measurable
2 | C/C=C1/CN2[C@H]3Cc4c([nH]c5ccccc45)[C@@H]2C[C@@H]1[C@]3(CO)C(=O)OC [Compound 2, akuammidine] | – | – | −4.8 ± 0.1 (3) | – | – | – | – | – | – | – | – | – | – | β-arrestin recruitment [8]: minimal recruitment; antinociception ([4]; 3 mg/kg s.c., 110 minutes): minimal, yet statistically significant, antinociception; antinociception ([4]; oral dosing, data not shown): no antinociception was measurable; antinociception ([6]; 10 mg/kg s.c., 50 minutes): minimal yet statistically significant antinociception; antinociception ([6]; 30 mg/kg s.c., 30 minutes): minimal yet statistically significant antinociception; antinociception ([6]; oral dosing, data not shown): no antinociception was measurable; β-arrestin 2 recruitment ([10]; highest concentration tested, in words): minimal recruitment
3 | C/C=C1/CN2CC[C@@]34c5ccccc5N(C)[C@]35OC[C@@]4(C(=O)OC)[C@H]1C[C@H]25 [Compound 3, pseudo-akuammigine] | 82 ± 7 | displaced | – | <<0.01 | 2.71 | 0.10 | 51.9 | 87.0 | 0.25 | 30.9 | <<0.01 | 32.3 | – | β-arrestin 2 α [2]: 20 ± 20; antinociception [4, 14]: did not produce antinociception; antinociception ([4]; 5 mg/kg s.c., 30 minutes): minimal yet statistically significant antinociception; antinociception ([4]; 10 mg/kg s.c., 30 minutes): failed to produce antinociception; cAMP α [5]: 69 ± 8; antinociception ([12]; Wistar rats, 5 mg/kg): antinociceptive; time of peak antinociceptive activity ([12]; rats): 180 min; antinociception [6, 14]: did not produce antinociception; antinociception ([6]; 5 mg/kg s.c., 30 minutes): minimal yet statistically significant antinociception; antinociception ([6]; 5 mg/kg s.c., 60 minutes): minimal yet statistically significant antinociception; antinociception ([6]; 10 mg/kg s.c., 30 minutes): failed to produce antinociception
4 | C/C=C1/CN2CC[C@]34C(=C(C(=O)OC)[C@H]1C[C@H]23)Nc1ccccc14 [Compound 4, akuammicine] | – | displaced | −7.1 ± 0.1 (3) | <<0.01 | 1.63 | 0.02 | 222 | 27.7 | 0.14 | 64.1 | <<0.01 | 28.9 | 0.61 | Ki [13]: 170 nM
5 | C/C=C1/CN2CC[C@]34C(=Nc5ccccc53)[C@@H]2C[C@@H]1[C@@]4(COC(C)=O)C(=O)OC [Compound 5, akuammiline] | – | significantly less displacement | −6.0 ± 0.1 (3) | <<0.01 | 0.23 | 0.03 | 28.2 | 5.61 | 0.05 | 6.82 | <<0.01 | 2.53 | 0.27 | Ki [13]: 400 nM
6 | C/C=C1/CN2[C@@H]3C[C@@]45c6ccccc6N[C@]4(O3)[C@@H]2C[C@@H]1[C@@]5(COC(C)=O)C(=O)OC [Compound 6, picraline] | – | significantly less displacement | – | <<0.01 | 0.82 | 0.03 | 16.09 | 11.4 | 0.10 | 17.4 | 0.01 | 7.29 | 0.56 | –
7 | C[C@@H](NC(=O)[C@@H](N)Cc1ccc(O)cc1)C(=O)NCC(=O)N(C)[C@@H](Cc1ccccc1)C(=O)NCCO [DAMGO, (2S)-2-[[2-[[(2R)-2-[[(2S)-2-Amino-3-(4-hydroxyphenyl)propanoyl]amino]propanoyl]amino]acetyl]-methylamino]-N-(2-hydroxyethyl)-3-phenylpropanamide, reference compound] | 100 | – | – | – | – | – | – | – | – | – | – | – | – | β-arrestin 2 α ([10]; efficacy normalized to positive control DAMGO): 100
8 | CN1CC[C@]23c4c5ccc(O)c4O[C@H]2[C@@H](O)C=C[C@H]3[C@H]1C5 [morphine, morphine sulfate pentahydrate, reference compound] | – | – | – | – | – | – | – | – | – | – | – | – | – | antinociception ([4]; 6 mg/kg s.c., 30 min): significant antinociception; antinociception ([6]; 6 mg/kg s.c., 30 min): significant antinociception
